These results are taken from patent publication US7105554B2, “Benzylidene thiazolidinediones and their use as antimycotic agents” (priority 2000, dated 2006).

Data set [1] addresses T1, Candida albicans PMT-1 enzyme (Candida albicans, UniProt O74189).
T1 construct: 25 μg of Candida albicans membrane protein; endogenous in cells
In words: PMT-1 Assay. The format is biochemical. Conditions: transfer of [3H]-mannose from dolicholphosphomannose to peptide DYATAV, Candida albicans membrane protein, 60 minutes at 25° C., pH 8.0; read-out: PMT-1 Inhibition (IC50, microM). The protocol:
The assay method is based upon the transfer of a radiolabelled mannose moiety from dolicholphosphomannose onto a threonine hydroxyl residue in a short peptide, as catalysed by the Candida albicans PMT-1 enzyme. Dolicholphospho-[^3H]-mannose is synthesised enzymatically from GDP-[^3H]-mannose and purified by chloroform:methanol extraction.
100000 Dpm of the generated substrate is incubated with 400 μg phosphatidylcholine, 25 μg of peptide (DYATAV) and 25 μg of Candida albicans membrane protein in a final volume of 50 μl in 100 mM Tris/1 mM MgCl2 buffer, pH 8.0. After 60 minutes at 25° C., the reaction is stopped with 50 μl of methanol. The unreacted radiolabel is removed by the addition of 150 μl of 0.4 g/ml octadecyl-functionalised silica (C18) in methanol. The C18 material is removed by centrifugation and the activity transferred to the peptide is counted in the supernatant.

In data set [2] the test system is Candida albicans (strain SC5314). In words: G418 Sensitivity Assay. The class given is cell-based. The following applies: concentration giving 50% reduction in cell growth relative to culture with G418 alone, strain SC5314, overnight at 37° C., OD600 nm, 1% DMSO. The protocol: This assay is based upon the observed increased sensitivity of the pmt1−/− Candida strain to Geneticin (G418) (6). 100 μl of a 0.1 OD600 nm culture of Candida albicans (strain SC5314) is placed into a 96 well plate in the presence or absence of varying concentrations of test compound. The compounds are initially dissolved in DMSO and added to the cultures at a final DMSO concentration of 1%. G418 is added to a final concentration of 100 [2 g/ml. In the absence of PMT1 inhibition, this concentration of G418 has no effect on the proliferation of the organism. The cultures are grown overnight at 37° C. and cell density is then estimated by an OD600 nm measurement. The effect of the test compound is calculated as the concentration that gives a 50% reduction in cell growth relative to the culture with G418 alone.

T1 sequence (O74189 whole entry): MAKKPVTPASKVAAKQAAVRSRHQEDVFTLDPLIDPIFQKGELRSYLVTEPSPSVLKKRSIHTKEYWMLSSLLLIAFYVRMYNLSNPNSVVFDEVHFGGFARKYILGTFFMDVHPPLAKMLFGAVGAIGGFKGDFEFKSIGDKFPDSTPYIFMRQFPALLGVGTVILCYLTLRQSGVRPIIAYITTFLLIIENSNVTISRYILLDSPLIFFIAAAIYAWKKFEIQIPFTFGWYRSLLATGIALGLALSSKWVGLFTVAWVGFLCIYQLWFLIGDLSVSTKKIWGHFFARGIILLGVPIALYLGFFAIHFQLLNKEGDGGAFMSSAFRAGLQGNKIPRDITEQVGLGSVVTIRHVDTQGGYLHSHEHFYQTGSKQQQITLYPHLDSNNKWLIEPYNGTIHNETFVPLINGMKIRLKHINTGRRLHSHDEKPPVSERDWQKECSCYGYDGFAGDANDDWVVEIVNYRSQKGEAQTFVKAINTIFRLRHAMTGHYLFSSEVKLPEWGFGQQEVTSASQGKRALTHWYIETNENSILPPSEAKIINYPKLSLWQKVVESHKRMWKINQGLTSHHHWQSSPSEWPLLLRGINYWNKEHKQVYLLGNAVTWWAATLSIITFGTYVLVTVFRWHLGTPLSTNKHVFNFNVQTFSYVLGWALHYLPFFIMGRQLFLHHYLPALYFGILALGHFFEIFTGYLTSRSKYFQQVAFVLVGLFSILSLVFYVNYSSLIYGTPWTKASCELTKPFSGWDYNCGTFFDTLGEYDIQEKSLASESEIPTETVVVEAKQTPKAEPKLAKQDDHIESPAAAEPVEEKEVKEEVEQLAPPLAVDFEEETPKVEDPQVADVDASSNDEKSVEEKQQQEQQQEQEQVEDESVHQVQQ
T1 sequence (Q5ADM9 whole entry, further chain): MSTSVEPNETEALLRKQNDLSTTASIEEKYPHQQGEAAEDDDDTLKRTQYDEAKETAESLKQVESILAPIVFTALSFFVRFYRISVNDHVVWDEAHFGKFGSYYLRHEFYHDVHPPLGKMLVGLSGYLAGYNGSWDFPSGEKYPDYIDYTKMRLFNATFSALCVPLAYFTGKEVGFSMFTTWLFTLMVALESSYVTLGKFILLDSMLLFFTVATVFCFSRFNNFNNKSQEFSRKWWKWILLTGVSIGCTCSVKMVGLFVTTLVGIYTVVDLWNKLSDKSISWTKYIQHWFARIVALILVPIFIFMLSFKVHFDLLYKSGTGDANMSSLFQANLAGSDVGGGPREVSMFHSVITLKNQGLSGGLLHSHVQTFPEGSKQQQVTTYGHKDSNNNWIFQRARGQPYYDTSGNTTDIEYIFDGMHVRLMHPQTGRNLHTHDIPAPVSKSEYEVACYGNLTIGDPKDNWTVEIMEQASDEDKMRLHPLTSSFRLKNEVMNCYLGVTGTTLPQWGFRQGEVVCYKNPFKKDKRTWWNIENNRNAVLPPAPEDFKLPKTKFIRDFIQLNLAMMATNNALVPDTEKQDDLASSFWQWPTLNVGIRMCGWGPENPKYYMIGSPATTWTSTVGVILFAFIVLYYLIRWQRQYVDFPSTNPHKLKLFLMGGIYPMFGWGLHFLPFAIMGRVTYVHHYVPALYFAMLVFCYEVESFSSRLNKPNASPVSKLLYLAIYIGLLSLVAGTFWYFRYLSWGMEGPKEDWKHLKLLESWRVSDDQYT

Take `O=C(O)CN1C(=O)/C(=C/c2ccc(OCc3ccccc3)c(OCc3ccccc3)c2)SC1=S` [Example 29, 5-[[3,4-bis(phenylmethoxy)phenyl]methylene]-4-oxo-2-thioxo-3-thiazolidineacetic acid]: the melting point (usually the temperature of the solid-liquid transition) was 235 to 238 °C.

For `O=C(O)CN1C(=O)/C(=C/c2ccc(OCc3cccc(C(F)(F)F)c3)c(OCc3ccccc3)c2)SC1=S` [Example 39, 5-[[3-(Phenylmethoxy)-4-[(3-trifluoromethylphenyl)methoxy]phenyl]-methylene]-4-oxo-2-thioxo-3-thiazolidineacetic acid], the IC50 (in general, the midpoint of a concentration-inhibition curve) was 2 µM in data set [1] and 650 nM in data set [2]. Turning to `O=C(O)CN1C(=O)/C(=C/c2ccc(OCc3ccc(OC(F)(F)F)cc3)c(OCc3ccccc3)c2)SC1=S` [Example 42, 5-[[3-(Phenylmethoxy)-4-[(4-trifluoromethoxyphenyl)methoxy]-phenyl]-methylene]-4-oxo-2-thioxo-3-thiazolidineacetic acid], the results for the IC50 in data set [1] and in data set [2] were 1 µM and 350 nM, respectively. On to `O=C(O)CN1C(=O)/C(=C/c2ccc(OCc3ccc(Cl)cc3)c(OCc3ccccc3)c2)SC1=S` [Example 44, 5-[[4-[(4-Chlorophenyl)methoxy] 3-(phenylmethoxy)phenyl]-methylene]-4-oxo-2-thioxo-3-thiazolidineacetic acid], for which the IC50 in data set [1] came to 1 µM; in data set [2] it was 600 nM. For `C[C@H](COc1ccc(/C=C2\SC(=S)N(CC(=O)O)C2=O)cc1O[C@@H](c1ccccc1)C(F)(F)F)c1ccccc1` [Example 60, 5-[[3-[(S)-1-Phenyl-2,2,2-trifluoroethoxy]-4-[(S)-2-phenylpropoxy]-phenyl]methylene]-4-oxo-2-thioxo-3-thiazolidineacetic acid], the melting point was 73 to 80 °C.
